# Earlier results as cited in patent US12582665B2, “Topical composition” (FUTURA MEDICAL DEVELOPMENTS LIMITED, priority 2020, dated 2026).
# Key:
# [1] = not given; remark: listed apart in the source
smiles,measurement,setting,value
"C=C(C)[C@@H]1CCC(C)=C[C@H]1c1c(O)cc(CCCCC)cc1O [CBD, cannabidiol]",log P,,~+6.00
same,Solubility in propylene glycol,[1],exceeding 10 % w/w
